In test [1] the test system is MT4 cells infected with HIV. Briefly: Analysis of HIV integration using real-time PCR. As to conditions: for 2LTR-circles (DNA copies) / Integration Alu-PCR (integrated DNA copies): DNA analyzed 16 h after infection, relative to control; for Conclusion (step of replication cycle inhibited): from Alu-PCR and 2LTR-circles. Format: cell-based. As for the experimental part:
Analysis of HIV Integration Using Real-Time PCR
Next to the detection of integrated DNA (proviral DNA), the production of 2LTR-circles formed by circularisation of unintegrated DNA was monitored. Specific inhibition of the integration of viral DNA into the genome was typically associated with accumulation of 2LTR-circles in the nucleus. MT4 cells were infected with HIV at high MOI by centrifugation for 60 min at 1200 g. After infection cells were incubated in the presence of compound in 24-well plates (10^6 c/well) for 16 h, and DNA was extracted using the QiaAmp DNA mini kit (Qiagen).
After normalization, 2LTR-circles and integrated DNA were quantified by real-time PCR using the appropriate primers and probe (cfr. reference Butler et al.). Reactions were analysed using the ABI Prism 5700 sequence detection system (Applied Biosystems).
DNA was analyzed for integration (Alu-PCR) and 2LTR-circles, 16 h after infection. DNA was also analyzed for viral cDNA synthesis, 4 h after infection.
(Real-time PCR tracks product formation cycle by cycle.)

Test [2] has as its target T1, Recombinant His-tagged HIV-1 integrase (Human immunodeficiency virus type 1 group M subtype B, UniProt P12497, C1427S/F1332K).
T1 construct: Recombinant His-tagged HIV-1 integrase; His; made in house; host or cells: E. coli BL21(DE3)
Briefly: Enzymatic integrase assay (oligonucleotide-based DNA strand transfer, ELISA). The test is classed as biochemical. As for the experimental part: Enzymatic Integrase Assay
The activity of HIV-integrase was determined using an oligonucleotide-based assay in which the DNA strand transfer by preformed complexes of integrase and processed DNA was measured by means of an enzyme-linked immunosorbent assay (ELISA) in microtiter plate format. Recombinant His-tagged HIV-1 integrase was produced in the E. coli strain BL21(DE3) from the plasmid pINSD.His.sol (available from NTH) after induction with isopropyl-β-D-thiogalactopyranoside (IPTG) according to described procedures (cfr. ref. Jenkins et al., “A soluble active mutant of HIV-1 integrase”, J. Biol. Chem. 271 ([…]), 7712-7718). HPLC-purified oligodeoxynucleotides were obtained from Proligo, and used for preparation of the viral DNA substrate and target DNA.
INb-1C is 5′-biotinylated, INT5 and INT6 are at the 3′-end labeled with FITC. INb-1C and IN-1NC correspond to the U5 end of the HIV-1 LTR. The DNA substrate for the integrase reactions was made by annealing INb-1C and IN-1NC. An equimolar mixture of INb-1C and IN-1NC was heated shortly at 95° C. in the presence of 100 mM NaCl and allowed to cool slowly to room temperature. In the same way, INT5 and INT6 were annealed to produce a target DNA molecule.
The integration strand transfer reactions were performed in the following way:
20 nM biotinylated DNA substrate INb-1C/IN-1NC was pre-incubated with 300 nM HIV-integrase at 37° C. for 5 min, to allow the cleavage reaction to occur. The candidate compounds and 50 nM target DNA INT5/INT6 were added to the reaction mix containing 20 mM Hepes pH 7.5, 25 mM NaCl, 5 mM MnCl2, 2 mM DTT, and 50 μg/ml BSA, and incubated for 2 h at 37° C. The reaction mix was transferred to streptavidin-coated plates (Exiqon), which were prewashed (three times) with 5×SSCT, and incubated for 1 h at room temperature to allow capture of the biotinylated viral DNA/target DNA complex. Plates were washed three times with 2×SSCT buffer, and anti-FITC POD-coupled antibody (Roche) was added and incubated for 1 h at room temperature to detect integrated FITC-labeled target DNA. After a final washing step with PBST (5 times), BM chemiluminescent POD-substrate (Roche) was added, and luminescence was read out.
The table below list the pIC50 values for those compounds tested in the enzymatic integrase assay. The pIC50 is expressed in Molar units and is the value according to the following formula: pIC50=−log IC50
wherein the IC50 value is the drug concentration at which 50% of the enzyme or viral activity is inhibited.
For orientation: ELISA stands for enzyme-linked immunosorbent assay.

`O=C1c2c(c(O)c3nccnc3c2O)C(=O)N1Cc1ccc2c(c1)OCO2` [Compound 1, 7-Benzo[1,3]dioxol-5-ylmethyl-5,9-dihydroxy-pyrrolo[3,4-g]quinoxaline-6,8-dione]: in test [1], the “2LTR-circles (DNA copies)” value was “+++ (“+++” symbol indicates an increase in the amount of DNA copies > 5 in comparison with the control level)”, the “Integration Alu-PCR (integrated DNA copies)” value (from here on “Integration Alu-PCR”) is “−” and the “Conclusion (step of replication cycle inhibited)” value is given as “Integrase”. The IC50 in test [2] was 617 nM.

Consider `O=C1c2c(c(O)c3nccnc3c2O)C(=O)N1Cc1ccc(F)cc1` [Compound 2, 7-(4-Fluoro-benzyl)-5,9-dihydroxy-pyrrolo[3,4-g]quinoxaline-6,8-dione], for which, in test [1], the “2LTR-circles (DNA copies)” value is “+++ (“+++” symbol indicates an increase in the amount of DNA copies > 5 in comparison with the control level)”, the “Integration Alu-PCR” value is recorded as “−” and the “Conclusion (step of replication cycle inhibited)” value is “Integrase”. For the same compound, in test [2], the concentration for half-maximal inhibition (IC50) is 417 nM.

As to `O=C1c2c(c(O)c3c(ncn3Cc3ccccc3)c2O)C(=O)N1Cc1ccc2c(c1)OCO2` [Compound 38, 6-Benzo[1,3]dioxol-5-ylmethyl-1-benzyl-4,8-dihydroxy-1H-1,3,6-triaza-s-indacene-5,7-dione], the concentration for half-maximal inhibition (IC50) in test [2] is 479 nM.

As for `O=C1c2c(c(O)c3[nH]cnc3c2O)C(=O)N1Cc1ccc2c(c1)OCO2` [Compound 39, 6-Benzo[1,3]dioxol-5-ylmethyl-4,8-dihydroxy-1H-1,3,6-triaza-s-indacene-5,7-dione], in test [2], the IC50 is 2040 nM.

In the case of `CC(c1ccccc1)N1C(=O)c2c(c(O)c3c(ncn3Cc3ccccc3)c2O)C1=O` (stereo not drawn) [Compound 40, 1-Benzyl-4,8-dihydroxy-6-(1-phenyl-ethyl)-1H-1,3,6-triaza-s-indacene-5,7-dione], in test [2], the IC50 is 1120 nM.

For the compound `CC(c1ccccc1)N1C(=O)c2c(c(O)c3ccccc3c2O)C1=O` (stereo not drawn) [Compound 42, 4,9-Dihydroxy-2-(1-phenyl-ethyl)-benzo[f]isoindole-1,3-dione], the IC50 in test [2] was > 100000 nM.

With `CC(C)Oc1ccc(Cc2ccccc2)cc1C(=O)CC(=O)C(=O)O` [Reference compound, reference compound], in test [1], the “2LTR-circles (DNA copies)” value is on record as “+++ (“+++” symbol indicates an increase in the amount of DNA copies > 5 in comparison with the control level)”, the “Integration Alu-PCR” value was “−” and the “Conclusion (step of replication cycle inhibited)” value is recorded as “Integrase”.

As usually defined, the IC50 is the concentration needed to halve the response being measured.

These data come from US20060211724A1, “Hiv integrase inhibitors” (priority 2003, published 2006).
